Results as given in ChEMBL document CHEMBL1152794, “Synthesis and biological evaluation of a small molecule library of 3rd generation multidrug resistance modulators” (Bioorg Med Chem, 2009).

What follows are molecules tested against ATP-dependent translocase ABCB1 (Homo sapiens, UniProt P08183) (assay: Inhibition of P-glycoprotein-mediated multidrug resistance in adriamycin-resistant human A2780/ADR cells by calcein AM assay).
Sequence of ATP-dependent translocase ABCB1 (P08183 whole entry): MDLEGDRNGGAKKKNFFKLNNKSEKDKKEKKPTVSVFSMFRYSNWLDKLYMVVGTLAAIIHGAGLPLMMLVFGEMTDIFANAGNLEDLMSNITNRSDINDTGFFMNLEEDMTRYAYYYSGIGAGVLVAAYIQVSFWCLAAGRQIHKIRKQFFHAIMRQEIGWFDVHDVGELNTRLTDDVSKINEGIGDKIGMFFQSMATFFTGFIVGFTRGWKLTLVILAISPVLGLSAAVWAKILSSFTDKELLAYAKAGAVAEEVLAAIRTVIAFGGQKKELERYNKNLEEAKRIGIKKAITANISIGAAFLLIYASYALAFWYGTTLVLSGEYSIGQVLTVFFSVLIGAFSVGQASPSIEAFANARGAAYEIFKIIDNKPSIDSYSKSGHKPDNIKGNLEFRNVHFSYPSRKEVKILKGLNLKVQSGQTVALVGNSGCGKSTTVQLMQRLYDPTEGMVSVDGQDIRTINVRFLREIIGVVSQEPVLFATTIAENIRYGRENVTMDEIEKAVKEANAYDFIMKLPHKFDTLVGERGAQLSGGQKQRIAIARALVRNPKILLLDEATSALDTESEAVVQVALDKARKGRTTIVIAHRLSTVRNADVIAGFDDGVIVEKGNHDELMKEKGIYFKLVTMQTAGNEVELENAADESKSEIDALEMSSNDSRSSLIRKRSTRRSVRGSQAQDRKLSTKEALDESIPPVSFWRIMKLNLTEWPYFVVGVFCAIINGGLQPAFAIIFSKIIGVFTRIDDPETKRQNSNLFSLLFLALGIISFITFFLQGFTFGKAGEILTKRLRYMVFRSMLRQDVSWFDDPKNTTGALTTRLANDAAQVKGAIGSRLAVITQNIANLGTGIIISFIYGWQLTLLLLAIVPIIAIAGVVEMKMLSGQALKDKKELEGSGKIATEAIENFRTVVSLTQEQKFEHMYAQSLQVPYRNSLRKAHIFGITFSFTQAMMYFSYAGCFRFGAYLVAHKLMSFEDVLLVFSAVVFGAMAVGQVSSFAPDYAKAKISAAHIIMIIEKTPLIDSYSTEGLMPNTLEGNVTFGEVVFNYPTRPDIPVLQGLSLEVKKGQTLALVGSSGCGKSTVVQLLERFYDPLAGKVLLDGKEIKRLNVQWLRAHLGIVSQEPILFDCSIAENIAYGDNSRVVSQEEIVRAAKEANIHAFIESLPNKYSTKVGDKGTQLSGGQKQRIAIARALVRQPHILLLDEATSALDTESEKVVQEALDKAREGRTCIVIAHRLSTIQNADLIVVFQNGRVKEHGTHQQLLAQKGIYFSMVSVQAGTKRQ
Assay type: cell-based
For `O=C(Nc1ccc(CCN2CCc3ccccc3C2)cc1)c1ccccc1[N+](=O)[O-]`, the IC50 was 14 µM. Molecule `COc1cc2c(cc1OC)CN(CCc1ccc(NC(=O)c3ccnc4ccccc34)cc1)CC2` has an IC50 of 4.7 µM. For `COc1cc2c(cc1OC)CN(CCc1ccc(NC(=O)c3cnc4ccccc4n3)cc1)CC2`, the IC50 was 0.47 µM. In the case of `COc1cc2c(cc1OC)CN(CCc1ccc(NC(=O)c3cnc4ccccc4c3)cc1)CC2`, the IC50 is reported as 0.57 µM. Molecule `COc1cc2c(cc1OC)CN(CCc1ccc(NC(=O)c3cccc(Br)c3)cc1)CC2` has an IC50 of 1.8 µM. Work on `COc1cc2c(cc1OC)CN(CCc1ccc(NC(=O)c3ccc4ccccc4c3)cc1)CC2` yielded an IC50 of 0.63 µM. With `O=C(Nc1ccc(CCN2CCc3ccccc3C2)cc1)c1ccc([N+](=O)[O-])cc1` the IC50 was 5.6 µM. Molecule `COc1cc2c(cc1OC)CN(CCc1ccc(NC(=O)c3ccc(N)cc3)cc1)CC2` has an IC50 of 4.4 µM. Molecule `COc1cc2c(cc1OC)CN(CCc1ccc(NC(=O)c3cc(OC)c(OC)cc3NC(=O)c3cnc4ccccc4c3)cc1)CC2` has an IC50 of 0.078 µM. `COc1cc2c(cc1OC)CN(CCc1ccc(NC(=O)c3ccccc3Br)cc1)CC2` was tested, and the IC50 was 3.3 µM. `COc1cc2c(cc1OC)CN(CCc1ccc(NC(=O)c3ccc4ncccc4c3)cc1)CC2` was tested, and the IC50 was 0.65 µM. In the case of `COc1cc2c(cc1OC)CN(CCc1ccc(NC(=O)c3cccnc3)cc1)CC2`, the IC50 is reported as 4.8 µM. `Nc1ccc(C(=O)Nc2ccc(CCN3CCc4ccccc4C3)cc2)cc1` was tested, and the IC50 was 12 µM. With `COc1cc2c(cc1OC)CN(CCc1ccc(NC(=O)c3ccccc3N)cc1)CC2` the IC50 was 8.5 µM. For `COc1cc2c(cc1OC)CN(CCc1ccc(NC(=O)c3ccccc3[N+](=O)[O-])cc1)CC2`, the IC50 was 5.4 µM. Work on `COc1cc2c(cc1OC)CN(CCc1ccc(NC(=O)c3ccccc3)cc1)CC2` yielded an IC50 of 4.1 µM. `COc1cc(/C=C/C(=O)Nc2ccc(CCN3CCc4cc(OC)c(OC)cc4C3)cc2)c([N+](=O)[O-])cc1OC` gave an IC50 of 1.5 µM. With `COc1cc2c(cc1OC)CN(CCc1ccc(NC(=O)c3ccc4ccccc4n3)cc1)CC2` the IC50 was 0.85 µM. `COc1cc2c(cc1OC)CN(CCc1ccc(NC(=O)Nc3ccccc3N)cc1)CC2` showed an IC50 of 21 µM. For `Nc1ccccc1NC(=O)Nc1ccc(CCN2CCc3ccccc3C2)cc1`, the IC50 was 19 µM. Molecule `COc1cc2c(cc1OC)CN(CCc1ccc(NC(=O)COc3ccccc3N)cc1)CC2` has an IC50 of 3.4 µM. `COc1cc2c(cc1OC)CN(CCc1ccc(NC(=O)/C=C/c3ccc(Cl)cc3)cc1)CC2` gave an IC50 of 0.67 µM. `COc1cc2c(cc1OC)CN(CCc1ccc(NC(=O)COc3ccccc3)cc1)CC2` was tested, and the IC50 was 3.1 µM. `COc1cc2c(cc1OC)CN(CCc1ccc(NC(=O)/C=C/c3ccccc3[N+](=O)[O-])cc1)CC2` was tested, and the IC50 was 1.1 µM. For `COc1cc2c(cc1OC)CN(CCc1ccc(NC(=O)c3ccc4c(c3)OCO4)cc1)CC2`, the IC50 was 2.1 µM. `COc1cc2c(cc1OC)CN(CCc1ccc(NC(=O)Nc3cccc(N)c3)cc1)CC2` showed an IC50 of 14 µM. Molecule `COc1cc2c(cc1OC)CN(CCc1ccc(NC(=O)Nc3ccc(N)cc3)cc1)CC2` has an IC50 of 31 µM. In the case of `COc1cc2c(cc1OC)CN(CCc1ccc(NC(=O)Nc3ccc([N+](=O)[O-])cc3)cc1)CC2`, the IC50 is reported as 1.5 µM. With `COc1cc2c(cc1OC)CN(CCc1ccc(NC(=O)Nc3ccccc3[N+](=O)[O-])cc1)CC2` the IC50 was 0.33 µM. `O=C(Nc1ccc(CCN2CCc3ccccc3C2)cc1)Nc1ccccc1[N+](=O)[O-]` showed an IC50 of 0.77 µM. For `COc1cc2c(cc1OC)CN(CCc1ccc(NC(=O)COc3ccccc3[N+](=O)[O-])cc1)CC2`, the IC50 was 0.22 µM. Work on `COc1cc2c(cc1OC)CN(CCc1ccc(NC(=O)Nc3cccc([N+](=O)[O-])c3)cc1)CC2` yielded an IC50 of 0.67 µM. With `COc1cc2c(cc1OC)CN(CCc1ccc(NC(=O)/C=C/c3ccccc3)cc1)CC2` the IC50 was 1.4 µM. With `COc1cc2c(cc1OC)CN(CCc1ccc(NC(=O)c3ccc([N+](=O)[O-])cc3)cc1)CC2` the IC50 was 1.4 µM.
